Test results reported in article PMC9214036, “Design and Synthesis of Novel PRMT1 Inhibitors and Investigation of Their Effects on the Migration of Cancer Cell” (Frontiers in Chemistry, 2022).
Counter-ions that a name gives are not always drawn.

Legend:
[1] = target: PRMT6 (Homo sapiens, UniProt Q96LA8); test: AlphaLISA selectivity assay, PRMT6; type: biochemical; details: read-out: IC50 against PRMT6
Protocol: (§1) […]. […] Next, 5 μl of enzyme solution was transferred to the assay plate and incubated at room temperature for 15 min. Then, 5 μl of substrate solution was added to each well to start the reaction. After incubation at room temperature for 30 min (PRMT4,6) and 60 min (PRMT3,8), 15 μl of acceptor and donor bead mix solution were added to the assay plate and incubated at room temperature for 60 min with subdued light. The signal was collected with Envision or EnSpire with Alpha mode. The data were analyzed in GraphPad Prism 5 to obtain IC50 values.

[2] = tested on: TGF-β signaling; test: cells; details: 18 h, read-out: IC50, inhibition of TGF-β signaling
Protocol: The medium was changed into DMEM with 0.1% FBS. […] The final concentration of DMSO should be maintained at 0.1%. After incubation, the medium was removed and the cells were rinsed with PBS to remove any residual compound. One hundred microliters of the Steady-Glo® Luciferase Assay reagent (Promega) was added to each well, and the cells were lysed in the dark for 10 min on a horizontal shaker. The luciferase activity was measured in a luminometer.

[3] = target: PRMT1 (Homo sapiens, UniProt Q99873); test: Radioactive PRMT1 methylation inhibition assay ([3H]-SAM, biotinylated histone H4 peptide); type: biochemical
Sequence of PRMT1 (Q99873 whole entry): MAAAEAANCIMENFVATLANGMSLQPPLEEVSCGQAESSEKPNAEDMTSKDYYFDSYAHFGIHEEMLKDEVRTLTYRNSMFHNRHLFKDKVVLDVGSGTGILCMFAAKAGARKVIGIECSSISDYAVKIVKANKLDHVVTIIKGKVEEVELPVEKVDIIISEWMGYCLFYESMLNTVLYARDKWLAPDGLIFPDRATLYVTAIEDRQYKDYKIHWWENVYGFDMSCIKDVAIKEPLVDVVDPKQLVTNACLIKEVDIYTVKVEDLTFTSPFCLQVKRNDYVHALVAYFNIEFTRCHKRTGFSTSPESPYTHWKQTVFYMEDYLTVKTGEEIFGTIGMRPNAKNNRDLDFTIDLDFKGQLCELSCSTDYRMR
Protocol: A series of 2,5-substituted furan and 2,4-substituted thiazole derivatives were synthesized and screened for their inhibitory effects on PRMT1 by using the radioactive PRMT1 methylation inhibition assay, which measured the amount of methyl groups that transferred from [^3H]-SAM to a biotinylated histone H4 peptide [ac-[…](Biotin)] (Tables 1–3).
The enzyme inhibitory activities and selectivity were measured by the radioisotope assay and AlphaLISA assay in ShangHai Chempartner Co., Ltd., according to the standard protocol. […] After 250 nL of compound solutions were added to the assay plate, 15 μl of PRMT1 enzyme solution or ×1 assay buffer for negative control was transferred to each well of prepared compound stock plates and the whole system (the final concentration of PRMT1 was 0.5 nM or 2 nM in the system) was incubated for 15 min at room temperature. […] Afterward, the reaction was stopped with the addition of 5 μl cold SAM solution to each well. Then, 25 μl volume per well was transferred to a Flashplate from the assay plate and incubated for a minimum of 1 h at room temperature. Finally, the Flashplate was washed with dH2O and 0.1% Tween-20 three times and then the reading plate in Microbeta using the program ^3H-Flashplate. The data were analyzed in GraphPad Prism 5 to obtain IC50 values.

[4] = CCK-8 cell viability assay in A549 cells; type: cell-based, human; details: human, A549 cells treated for 48 h, read-out: IC50 (CC50), A549 cell viability
Protocol: (§2) To determine the effects of WCJ-394 on the inhibition of TGF-β1-induced epithelial–mesenchymal transition (EMT) in A549 cells, the characterized proteins were detected using the Western blotting assay.
(§3) Cells were seeded into a 96-well plate; after 12 h of attachment, the cells were treated with different concentrations (0–1,600 μΜ) of WCJ-394 for 48 h. Cell viability was assessed by a Cell Counting Kit-8 (CCK-8; MCE) according to the manufacturer’s instructions. Briefly, after treatment, the CCK-8 solution was added to the culture medium and incubated at 37°C for 1 h. Cell viability was assessed by measuring the absorbance at 450 nm. In the subsequent luciferase assays, the effects of WCJ-394 on the cell viability were examined in parallel to exclude the compound-induced cell death.

[5] = tested on: A549 cells; test: CCK-8 cell viability assay in A549 cells; type: cell-based, human; details: concentrations of 0–50 μM
Protocol: as §2, §3

[6] = tested on: MLEC; test: MLEC cell viability (CCK-8) under the luciferase assay condition; type: cell-based, mink; details: concentration up to 100 μM, same condition as luciferase assay
Protocol: as §3
The luciferase activity was measured in a luminometer.

[7] = tested on: A549 cells; test: Transwell migration assay, TGF-β1-induced A549 cell migration; type: cell-based, human; details: TGF-β1, WCJ-394 pretreatment 5, 10, 20 μM
Protocol: A549 cells in the logarithmic growth phase were resuspended with a serum-free DMEM medium and seeded into the 8-μm transwell filter inserts at a density of 8 × 10^3 cells per well; meanwhile, 600 μl medium containing 10% FBS was added into the lower chambers of the 24-well cell culture plate. […] After incubation, the cells in the upper chambers were carefully removed with a cotton swab, while the cells that had traversed to the bottom side of the membrane were fixed with 4% paraformaldehyde for 15 min and stained with 0.1% crystal violet for 20 min. The chambers were washed with PBS buffer to remove extra crystal violet. Three fields of view were randomly taken and photographed from the central and surrounding parts of each membrane under a microscope at ×100 magnification, and cell number was calculated by ImageJ software.

[8] = target: PRMT8 (Homo sapiens, UniProt Q9NR22); test: AlphaLISA selectivity assay, PRMT8; type: biochemical; details: read-out: IC50 against PRMT8
Sequence of PRMT8 (Q9NR22 whole entry): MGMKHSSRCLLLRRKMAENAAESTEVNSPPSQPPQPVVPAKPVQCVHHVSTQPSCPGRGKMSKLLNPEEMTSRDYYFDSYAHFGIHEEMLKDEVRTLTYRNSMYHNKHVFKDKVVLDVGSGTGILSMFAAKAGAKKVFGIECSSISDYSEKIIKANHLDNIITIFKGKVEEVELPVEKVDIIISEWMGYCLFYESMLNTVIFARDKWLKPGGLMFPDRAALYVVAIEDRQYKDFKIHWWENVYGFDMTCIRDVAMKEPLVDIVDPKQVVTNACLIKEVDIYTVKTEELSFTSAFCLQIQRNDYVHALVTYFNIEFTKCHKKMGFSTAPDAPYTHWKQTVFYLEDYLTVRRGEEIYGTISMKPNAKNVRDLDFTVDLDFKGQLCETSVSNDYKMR
Protocol: as §1

[9] = target: PRMT3 (Homo sapiens, UniProt O60678); test: AlphaLISA selectivity assay, PRMT3; type: biochemical; details: read-out: IC50 against PRMT3
Sequence of PRMT3 (O60678 whole entry): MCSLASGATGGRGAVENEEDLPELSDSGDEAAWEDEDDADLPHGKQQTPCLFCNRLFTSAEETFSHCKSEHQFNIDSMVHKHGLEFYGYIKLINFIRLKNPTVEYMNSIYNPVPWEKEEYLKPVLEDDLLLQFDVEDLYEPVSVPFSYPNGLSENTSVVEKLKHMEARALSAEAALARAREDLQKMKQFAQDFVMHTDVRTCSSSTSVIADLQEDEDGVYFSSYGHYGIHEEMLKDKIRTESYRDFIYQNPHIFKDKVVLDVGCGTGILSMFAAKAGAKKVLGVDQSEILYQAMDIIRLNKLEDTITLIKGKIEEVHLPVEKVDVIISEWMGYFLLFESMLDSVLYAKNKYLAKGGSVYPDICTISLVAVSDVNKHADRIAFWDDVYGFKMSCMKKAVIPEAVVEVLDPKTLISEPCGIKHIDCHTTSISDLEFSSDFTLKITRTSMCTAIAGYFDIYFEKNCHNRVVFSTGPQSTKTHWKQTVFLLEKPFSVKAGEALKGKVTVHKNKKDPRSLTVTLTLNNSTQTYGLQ
Protocol: as §1

[10] = target: T1, PRMT4 (Homo sapiens, UniProt Q86X55); test: AlphaLISA selectivity assay, PRMT4; type: biochemical; details: read-out: IC50 against PRMT4
T1 sequence (Q86X55 1-608): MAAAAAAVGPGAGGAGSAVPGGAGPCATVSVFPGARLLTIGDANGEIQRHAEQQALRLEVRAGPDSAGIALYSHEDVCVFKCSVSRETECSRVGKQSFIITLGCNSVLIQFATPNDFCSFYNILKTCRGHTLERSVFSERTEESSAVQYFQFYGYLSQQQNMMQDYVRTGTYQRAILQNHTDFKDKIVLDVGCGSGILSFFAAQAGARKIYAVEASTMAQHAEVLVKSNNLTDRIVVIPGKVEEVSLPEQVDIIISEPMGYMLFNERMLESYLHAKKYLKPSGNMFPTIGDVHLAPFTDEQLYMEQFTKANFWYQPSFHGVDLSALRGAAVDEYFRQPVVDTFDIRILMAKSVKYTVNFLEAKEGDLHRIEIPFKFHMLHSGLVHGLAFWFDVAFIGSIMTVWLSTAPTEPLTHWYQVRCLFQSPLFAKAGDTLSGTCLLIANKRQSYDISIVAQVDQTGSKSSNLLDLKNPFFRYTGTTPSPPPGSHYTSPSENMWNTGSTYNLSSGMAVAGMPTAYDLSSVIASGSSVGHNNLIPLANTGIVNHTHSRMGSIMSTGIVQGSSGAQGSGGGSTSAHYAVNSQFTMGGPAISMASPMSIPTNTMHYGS
Protocol: as §1

[11] = tested on: A549 cells; test: Scratch wound healing assay, TGF-β1-induced A549 cell migration; type: cell-based, human
Protocol: In the scratch wound healing assay, the percentages of scratch widths at 24 and 48 h compared to that of 0 h were used to denote the rate of A549 cell migration. As shown in Figures 6A–C, the TGF-β1 treatment promoted the scratched wound closure.
The monolayer cell was scratched with a new 10 μl pipette tip across the center of the well, and the detached cells were gently rinsed with PBS buffer. […] The scratch was photographed through a microscope at ×100 magnification at 0, 24, and 48 h. Then, the scratch width was quantified by ImageJ software and the rate of wound closure was calculated with the final values expressed as a migration percentage of the scratch width relative to 0 h.

[12] = tested on: A549 cells; test: Western blot of TGF-β1-induced mesenchymal markers (EMT) in A549 cells; type: cell-based, human; details: TGF-β1 48 h, WCJ-394 pretreatment 5, 10, 20 μM
Protocol: (§4) A549 cells in the logarithmic growth phase were seeded into a 6-well cell culture plate at a density of 3 × 10^5 cells per well.
(§5) A549 cells were lysed in RIPA buffer, which contains protease and phosphatase inhibitors, and then harvested in Eppendorf tubes for centrifugation (14,000 rpm for 10 min at 4°C) to remove cell debris. The supernatants were transferred into new Eppendorf tubes, and the protein concentration was quantified with a BCA kit (Thermo Fisher). The protein samples were separated by 10% SDS-PAGE and transferred onto polyvinylidene difluoride (PVDF) membranes. The membranes were blocked for 1 h at room temperature in 5% BSA and then incubated with the corresponding primary antibodies overnight at 4°C and then incubated with secondary antibodies for another 1 h at room temperature. After being washed with TBST buffer three times, the PVDF membranes were visualized with ECL reagents (Millipore) and the Western blot results were further analyzed by ImageJ software (National Institutes of Health).

[13] = tested on: A549 cells; test: Western blot of PRMT-related proteins (SDMA, ADMA, DDAH, PRMT1) in A549 cells; type: cell-based, human; details: WCJ-394 5, 10, 20 μM, 48 h
Protocol: as §4, §5

Sequence of PRMT6 (Q96LA8 whole entry): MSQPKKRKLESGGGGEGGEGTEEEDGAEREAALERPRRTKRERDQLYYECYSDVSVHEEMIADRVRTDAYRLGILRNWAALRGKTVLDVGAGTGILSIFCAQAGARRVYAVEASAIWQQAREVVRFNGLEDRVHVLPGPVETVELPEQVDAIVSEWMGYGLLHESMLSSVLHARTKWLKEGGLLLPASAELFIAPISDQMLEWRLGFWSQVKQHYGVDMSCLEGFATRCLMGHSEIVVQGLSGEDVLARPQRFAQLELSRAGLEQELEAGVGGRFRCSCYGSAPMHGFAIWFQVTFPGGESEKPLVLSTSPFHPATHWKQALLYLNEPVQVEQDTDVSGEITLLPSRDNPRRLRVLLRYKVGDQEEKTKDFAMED

**Q.** For `CN(CCN)Cc1csc(-c2ccc(C(=N)N)nc2)n1` [Compound 1r, N′-[2-(2-Aminocarboximido-5-pyridyl)thiazol-4-yl-methyl]-N′-methylethylenediamine Hydrochloride], which IC50 [1] is on record?
**A.** 29.7 ± 2.03 µM

**Q.** And the IC50 [2]?
**A.** 17.7 µM

**Q.** What about the “PRMT1 IC50 compared with SAH” value ([3]; fold weaker than SAH) of the same compound?
**A.** about two times weaker than SAH

**Q.** What about the IC50 ([3]; radioactive methylation assay, read-out: IC50 (μM) against PRMT1) of the same compound?
**A.** 1.21 ± 0.11 µM

**Q.** What about the inhibition at 10 µM ([3]; read-out: % Inhibition of PRMT1 (at 10 μM)) of the same compound?
**A.** 98.5 ± 0.04%

**Q.** What about the IC50 at 48 h [4] of the same compound?
**A.** 584 µM

**Q.** What about the “cytotoxicity in A549 cells” value [5] of the same compound?
**A.** did not result in any cytotoxicity

**Q.** And the “cytotoxicity in MLEC (cell viability)” value [6]?
**A.** without showing significant cytotoxicity

**Q.** What about the “number of migrated cells (transwell)” value [7] of the same compound?
**A.** significantly decreased the number of migrated cells in a concentration-dependent manner

**Q.** What about the IC50 [8] of the same compound?
**A.** 5.71 ± 0.05 µM

**Q.** What about the IC50 [9] of the same compound?
**A.** 57.6 ± 0.62 µM

**Q.** What about the IC50 [10] of the same compound?
**A.** 1.64 ± 0.17 µM

**Q.** And the “TGF-β1-induced cell migration (scratched wound closure) at 24 h” value ([11]; WCJ-394 pretreatment at 10 or 20 μM, 24 h)?
**A.** significantly inhibited

**Q.** What about the “TGF-β1-induced cell migration (scratched wound closure) at 48 h” value ([11]; WCJ-394 pretreatment, 48 h) of the same compound?
**A.** retardation effect of WCJ-394 on cell migration was further detected

**Q.** And the “expression of EMT-related proteins (fibronectin, N-cadherin, MMP-2, α-SMA)” value [12]?
**A.** decreased (p < 0.05) by the pretreatment of WCJ-394 in a concentration-dependent manner

**Q.** And the “expression level of ADMA” value [13]?
**A.** significantly reduced in a concentration-dependent manner

**Q.** What about the “expression of DDAH” value [13] of the same compound?
**A.** significantly decreased in a concentration-dependent manner

**Q.** And the “expression of PRMT1” value [13]?
**A.** not significantly affected

**Q.** What about the “expression of SDMA” value [13] of the same compound?
**A.** not affected
